The results in this text go back to article PMC12040169 (PLOS Biology, 2025).

A short description of the series: in vitro. The conditions noted are these: human, hela cells, % viability.

Take `O=C(Cc1ccccc1F)NCc1nnc(-c2cccs2)o1` [CBK284632]: the viability at 28.5 h, 10 µM is 82%.

For the compound `CC(=O)Nc1cc(S(N)(=O)=O)c(F)cc1C` [CBK034356], the viability at 28.5 h, 10 µM worked out at 94.1%.

Turning to `O=C(O)CSc1nnc(-c2sc3ccccc3c2Cl)n1-c1ccccc1` [CBK263830], the viability at 28.5 h, 10 µM was found to be 92.9%.

For `CS(=O)(=O)N(CC(=O)Nc1ccc(S(=O)(=O)N2CCCCCC2)cc1)c1ccccc1F` [CBK266829], the viability at 28.5 h, 10 µM amounted to 92.9%.

For `Cc1cn2c(=O)c3ncn([C@H]4C[C@@H](O)[C@@H](CO)O4)c3nc2[nH]1` [CBK201320], the viability at 28.5 h, 10 µM is 86.6%.

`CCCC/C=C/c1cnc(N)c(-c2ccc(CCC(=O)O)cc2)n1` [CBK064127]: the viability at 28.5 h, 10 µM was 95.5%.

On to `CCC(NC1CCc2nc(COC)nn2C1)c1ccccc1O` (centres unmarked) [CBK305132], for which the viability at 28.5 h, 10 µM was determined as 92.1%.

In the case of `COc1cncc(-c2cncc(N3CCN(CCN(C)C)CC3)n2)c1` [CBK065393], the viability at 28.5 h, 10 µM is 120%.

Turning to `O=C(O)CCc1ccc(S(=O)(=O)NCc2ccccc2)cc1` [CBK287054], the viability at 28.5 h, 10 µM was 79.8%.

For the compound `CC(C)Oc1cccc(C(=O)Nc2ccc(N3CCN(C(=O)C(C)(C)C)CC3)cc2)c1` [CBK270280], the viability at 28.5 h, 10 µM was found to be 88.7%.

In the case of `O=C(C1CCCC1)N1CCCc2cc(C(O)CN3CCCC3)ccc21` (centres unmarked) [CBK282145], the viability at 28.5 h, 10 µM is 94.2%.

As for `CCN(CC)C(=O)c1[nH]c2ccccc2c1NS(=O)(=O)Cc1ccccc1` [CBK050107], the viability at 28.5 h, 10 µM is 108%.

In the case of `COCCCNC(=O)C1CCCN(c2nc3c(-c4ccccc4)csc3c(=O)[nH]2)C1` (centres unmarked) [CBK215498], the viability at 28.5 h, 10 µM is 94%.

Take `COCCCn1c(=O)[nH]c2ncc(-c3cccc(/C=C/C(=O)O)c3)nc21` [CBK065107]: the viability at 28.5 h, 10 µM turned out to be 104%.

For the compound `N#CCCn1cc(C(=O)N2CCCCC2)c(-c2cccs2)n1` [CBK306194], the viability at 28.5 h, 10 µM was 86.5%.

Consider `O=C(Cc1ccsc1)Nc1snnc1-c1ccc(Cl)cc1` [CBK153243], for which the viability at 28.5 h, 10 µM amounted to 94.5%.

For `CC(Cn1cccn1)C(=O)Nc1cccc(N2CCCC2)c1` (centres unmarked) [CBK283249], the viability at 28.5 h, 10 µM is 87.1%.

For the compound `CCNC(=O)N1Cc2nc[nH]c2C[C@H]1C(=O)NCc1ccc(OC)cc1` [CBK288973], the viability at 28.5 h, 10 µM came to 115%.

Turning to `c1ccc2oc(SCCCCSc3nc4ccccc4o3)nc2c1` [CBK025465], the viability at 28.5 h, 10 µM is 97.7%.

As for `COCC(=O)N1CCc2sccc2C1c1ccc(NCc2ccc(F)cc2F)cc1` (centres unmarked) [CBK286460], the viability at 28.5 h, 10 µM stood at 100%.

Consider `COc1ccc(CC(=O)Nc2ccc(S(N)(=O)=O)cc2)cc1OC` [CBK263429], for which the viability at 28.5 h, 10 µM amounted to 92%.

`CC[C@H](Cn1c(=O)oc2ccccc21)NC(=O)Cc1cccs1` [CBK284537]: the viability at 28.5 h, 10 µM was 84.7%.

In the case of `CCC(Oc1ccccc1F)C(=O)Nc1cc(C)on1` (centres unmarked) [CBK305558], the viability at 28.5 h, 10 µM was 98.5%.

For `COCCNc1nc(-c2cccc(N(C)C)c2)ccc1C(=O)NCCc1ccccn1` [CBK105938], the viability at 28.5 h, 10 µM was 90.7%.

On to `CCOC(=O)N1COC[C@@H]1C(=O)O` [CBK010379], for which the viability at 28.5 h, 10 µM came out at 81.5%.

Turning to `COc1ccc(C(=O)NCCCCCC(=O)O)cc1` [CBK287146], the viability at 28.5 h, 10 µM was 109%.

As for `COc1ccc(C(=O)Nc2ccc3c(c2)COC2(CCNCC2)O3)c(OC)n1` [CBK091528T], the viability at 28.5 h, 10 µM (bulk resorufin, single well) stood at 87.5%.

On to `O=[N+]([O-])c1ccc(N(CCO)CCO)c2nonc12` [CBK261447], for which the viability at 28.5 h, 10 µM was 98.7%.

For `Cc1cc(NC(=O)CN(C)Cc2ccc(Br)cc2)on1` [CBK305599], the viability at 28.5 h, 10 µM was 97.3%.

`CCn1cc(-c2cncn2CCCC(C)(C)CO)cn1` [CBK281704]: the viability at 28.5 h, 10 µM was determined as 88.3%.

For the compound `CC(C)=NOc1ncccc1C#N` [CBK007841], the viability at 28.5 h, 10 µM worked out at 115%.

Turning to `CN1CCC(NC2(Cc3cc(-c4ccccn4)on3)COC2)CC1` [CBK289249], the viability at 28.5 h, 10 µM was determined as 88.7%.

Take `O=C(c1cncnc1)N1CCC2(CCN(C(=O)c3cc(F)c(F)cc3F)C2)C1` (centres unmarked) [CBK131405]: the viability at 28.5 h, 10 µM came to 94.8%.

As to `O=C(CC1(O)C(=O)N(CN2CCOCC2)c2ccccc21)c1ccc2c(c1)OCO2` (centres unmarked) [CBK269639], the viability at 28.5 h, 10 µM came out at 99.3%.

With `Cn1c(COc2cccc3cccnc23)nnc1SCC(=O)O` [CBK300505], the viability at 28.5 h, 10 µM amounted to 89.4%.

As for `CN(C)CC(C)(C)CNC(=O)C1=CC(=O)CC(C)(C)O1` [CBK153291], the viability at 28.5 h, 10 µM was 103%.

As to `COc1nccnc1OC1CCN(CCc2ccccc2)CC1` [CBK084258], the viability at 28.5 h, 10 µM was found to be 95%.

As for `CC(C(=O)N1c2ccccc2Sc2ccccc21)N1C(=O)c2ccccc2C1=O` (centres unmarked) [CBK018045], the viability at 28.5 h, 10 µM amounted to 105%.

`O=C(CSc1nnc(COc2cccc3cccnc23)n1-c1ccccc1)N1CCCC1` [CBK269614]: the viability at 28.5 h, 10 µM turned out to be 79.1%.

On to `O=c1nc(-c2cc(Br)cs2)[nH]c2ccc(Cl)cc12` [CBK018959], for which the viability at 28.5 h, 10 µM was 90.5%.

As to `CCOC(=O)c1ccc2ncc3c(=O)nc(N)sc3c2c1` [CBK291218], the viability at 28.5 h, 10 µM stood at 83.7%.

Consider `Cc1c(C(=O)O)c2cc(O)ccc2n1-c1ccccc1` [CBK115329], for which the viability at 28.5 h, 10 µM turned out to be 103%.

`CCN1CCN(c2ccc(NC(=O)c3ccc(OCc4ccccc4)cc3)cc2Cl)CC1` [CBK266683]: the viability at 28.5 h, 10 µM worked out at 78%.

With `Cc1ccc(-n2c(C)c([N+](=O)[O-])c3ccc(O)cc32)cc1` [CBK094246], the viability at 28.5 h, 10 µM was 86.2%.

As for `CS(=O)(=O)Nc1cc(-c2noc([C@@H]3CCCN3C3CCOCC3)n2)ccn1` [CBK288887], the viability at 28.5 h, 10 µM was 81.8%.

In the case of `Cc1cnc(C(=O)OCc2cc(=O)n3ccsc3n2)cn1` [CBK296978], the viability at 28.5 h, 10 µM turned out to be 95.5%.

Regarding `O=C1CC2(CCN(S(=O)(=O)c3ccc(F)cc3)CC2)CN1` [CBK283353], the viability at 28.5 h, 10 µM came to 93.9%.

Regarding `CCCn1c(SCC(=O)N(C)Cc2ccc(OCC)cc2)n[nH]c1=O` [CBK295132], the viability at 28.5 h, 10 µM was found to be 90%.

As for `O=C(CNC1Cc2ccccc2C1)Nc1ccc(Cl)cc1C(=O)c1ccccc1Cl` [CBK074764], the viability at 28.5 h, 10 µM stood at 100%.

As to `Cc1csc(N2CCN(C(=O)CCc3nc(C(C)C)no3)CC2)n1` [CBK305341], the viability at 28.5 h, 10 µM came out at 99.4%.

With `CCOC(=O)C1(c2ccccc2)CCN(C(=O)CCN2CCN(C)CC2)CC1` [CBK132211], the viability at 28.5 h, 10 µM (bulk resorufin, single well) came to 86.2%.

For `Cc1nn(C)c(C)c1CN(C)C(=O)CCC(C)N1CCCC1` (centres unmarked) [CBK282001], the viability at 28.5 h, 10 µM was 101%.

`CCCCN1CCC(C(=O)Oc2ccc(OC)c3ccccc23)CC1` [CBK122682]: the viability at 28.5 h, 10 µM was 97.2%.

With `c1ccc(Sc2cccc3ccccc23)nc1` [CBK085856], the viability at 28.5 h, 10 µM is 91.8%.

Consider `Cn1ncc(Cl)c1C1CCCCCN1C(=O)c1cc(C2CC2)on1` (centres unmarked) [CBK284973], for which the viability at 28.5 h, 10 µM amounted to 102%.

As for `Fc1ccc(Br)cc1SCCc1ccccn1` [CBK262330G], the viability at 28.5 h, 10 µM amounted to 86.7%.

Turning to `COc1ccc(NC(=O)CSc2ncnc3sc(C)cc23)c(OC)c1` [CBK277541], the viability at 28.5 h, 10 µM stood at 100%.

Regarding `CCCc1ccc(C(=O)NCC(C)n2cncn2)o1` (centres unmarked) [CBK282883], the viability at 28.5 h, 10 µM turned out to be 92.5%.

On to `Cc1c(C)n(C)c2ccc(C(=O)NCCC(=O)N3CCOCC3)cc12` [CBK281669], for which the viability at 28.5 h, 10 µM was 65.8%.

For the compound `CCOC(=O)C1(c2ccccc2)CCN(C(=O)CCC(=O)OC)CC1` [CBK132198], under “bulk resorufin, single well”, the viability at 28.5 h, 10 µM was 79.8%.

With `O=C(c1ccco1)N1CCCC(n2c(=O)oc3ccc(Cl)cc32)C1` (centres unmarked) [CBK282892], the viability at 28.5 h, 10 µM worked out at 91.5%.

Consider `CCOC(=O)Cn1nc(CC)c(Cc2c(Cl)cccc2Cl)c1C` [CBK113222], for which the viability at 28.5 h, 10 µM came out at 122%.

With `OCCCn1c(-c2ccc(Cl)cc2)cn2c3ccccc3nc12` [CBK262900], the viability at 28.5 h, 10 µM worked out at 103%.

Consider `CC1CCc2c(sc(NC(=O)c3cccs3)c2C(=O)N2CCOCC2)C1` (centres unmarked) [CBK307101], for which the viability at 28.5 h, 10 µM came out at 100%.

For `Cc1cc(COc2nccc(C(F)(F)F)n2)no1` [CBK115800], the viability at 28.5 h, 10 µM is 88.7%.

Consider `Cc1sc2ncn(CC(=O)NC3CCOc4ccccc43)c(=O)c2c1C` (centres unmarked) [CBK304562], for which the viability at 28.5 h, 10 µM is 86.3%.

As to `Cc1ccc(SCC(=O)Nc2cc(C)on2)cc1` [CBK057070], the viability at 28.5 h, 10 µM amounted to 115%.

With `O=C1NC2(CCc3ccccc31)CCN(Cc1cccnc1)C2` (centres unmarked) [CBK284620], the viability at 28.5 h, 10 µM stood at 96.5%.

For `CCN(CC)CC(=O)Nc1ccccc1OC` [CBK266213C], the viability at 28.5 h, 10 µM stood at 113%.

On to `COc1ccccc1CC(C)NC(=O)CC1CCN(c2nc(C)cc(C)n2)CC1` (centres unmarked) [CBK285956], for which the viability at 28.5 h, 10 µM is 111%.

For the compound `CCOc1ccccc1N(CC(=O)Nc1ccc(C)cc1C)S(C)(=O)=O` [CBK263799], the viability at 28.5 h, 10 µM worked out at 96%.

As for `Cc1ccc(S(=O)(=O)N(C)CCCC(=O)n2cnc3ccccc32)cc1` [CBK264457], the viability at 28.5 h, 10 µM was 104%.

On to `O=[N+]([O-])c1ccc(Oc2cccc3cccnc23)c(F)c1` [CBK002750], for which the viability at 28.5 h, 10 µM was determined as 60.4%.

Take `Clc1ccc(CN2CCc3ccccc3C2)cc1Cl` [CBK126395]: the viability at 28.5 h, 10 µM is 103%.

In the case of `O=C(c1ccc2[nH]ccc2c1)N1CCN(c2ncccn2)CC1` [CBK144500], the viability at 28.5 h, 10 µM stood at 87%.

As for `CC(C(=O)N1C2CCC1CC(O)(c1ccco1)C2)c1ccccc1` (centres unmarked) [CBK284112], the viability at 28.5 h, 10 µM was 97.8%.

`CCN1CCN(C(=O)C2CC(C)=C(C)CC2C(=O)O)CC1` (centres unmarked) [CBK270311]: the viability at 28.5 h, 10 µM was 87.1%.

Consider `Cc1[nH]nc(C(F)(F)F)c1Cl` [CBK025387], for which the viability at 28.5 h, 10 µM stood at 113%.

In the case of `CC(=O)Nc1cccc(-c2cncc(NCc3ccco3)n2)c1` [CBK065290], the viability at 28.5 h, 10 µM is 100%.

As for `Cc1ccccc1CNCCNCC(C)O` (centres unmarked) [CBK268718C], the viability at 28.5 h, 10 µM was found to be 95.9%.

As to `CC(C)c1ccc(S(=O)(=O)N(c2ccccc2)C2CCNCC2)cc1` [CBK165088T], the viability at 28.5 h, 10 µM came to 108%.

With `COCOc1ccc(-c2nccnc2OC)cc1` [CBK106914], the viability at 28.5 h, 10 µM was 111%.

Consider `O=C(c1cnn(C(=O)c2ccc3c(=O)n4c(nc3c2)CCC4)c1)c1ccccc1O` [CBK295145], for which the viability at 28.5 h, 10 µM was found to be 95.7%.

One may read the viability as a read-out of living cells in per cent, often relative to untreated cells.
